Values quoted from earlier work as cited in PubChem BioAssay AID1259409 (Chemical Carcinogenesis Research Information System (CCRIS), 2018).

System: rodent chemically induced tumor inhibition, incidence and multiplicity
Assay: CCRIS tumor inhibitor studies
Conditions: Promoter: NONE USED

## COc1ccc2c(c1)c(CC(=O)O)c(C)n2C(=O)c1ccc(Cl)cc1
Carcinogen: N-ETHYL-N-NITROSOUREA, 759-73-9, Dose [Inhibitor]: 0, 20 MG/L IN DRINKING WATER FOR 12 MO ADMINISTERED TO OFFSPRING OF CARCINOGEN-TREATED MOTHERS (STUDY DURATION: 12 MO), Route [Inhibitor]: ORAL, Species: RAT, Strain/Sex: ALBINO/MALE, FEMALE, Target Tissue: Type of Lesion: PERIPHERAL NERVES: TUMOR, Dose [Carcinogen]: 75 MG/KG BW ADMINISTERED INTRAPERITONEALLY TO MOTHERS 21 D POST CONCEPTION
  tumour outcome (control, treated, inhibition, significance): 13/42 (31%), 3/25 (12%), 61%, not significant
Carcinogen: N-ETHYL-N-NITROSOUREA, 759-73-9, Dose [Inhibitor]: 0, 20 MG/L IN DRINKING WATER FOR 12 MO ADMINISTERED TO OFFSPRING OF CARCINOGEN-TREATED MOTHERS (STUDY DURATION: 12 MO), Route [Inhibitor]: ORAL, Species: RAT, Strain/Sex: ALBINO/MALE, FEMALE, Target Tissue: Type of Lesion: SPINAL CHORD: TUMOR, Dose [Carcinogen]: 75 MG/KG BW ADMINISTERED INTRAPERITONEALLY TO MOTHERS 21 D POST CONCEPTION
  tumour outcome (control, treated, inhibition, significance): 11/42 (26%), 4/25 (16%), 38%, not significant
Carcinogen: N-METHYL-N-NITROSOUREA, 684-93-5, Dose [Inhibitor]: 2.5 MG/KG BW FOR 10 WK STARTING 21 WK POST CARCINOGEN TREATMENT (STUDY DURATION: 35 WK), Route [Inhibitor]: INTRAPERITONEAL, Species: RAT, Strain/Sex: CD/F344/FEMALE, Target Tissue: Type of Lesion: COLON: ADENOCARCINOMA, Dose [Carcinogen]: 2 MG 3/WK FOR 5 WK
  tumour outcome (control, treated, inhibition, significance): 6/9 (67%), 6/9 (67%), 0%, not significant
Carcinogen: N-METHYL-N-NITROSOUREA, 684-93-5, Dose [Inhibitor]: 2.5 MG/KG BW FOR 15 WK STARTING 5 WK POST CARCINOGEN TREATMENT (STUDY DURATION: 26 WK), Route [Inhibitor]: INTRAPERITONEAL, Species: RAT, Strain/Sex: CD/F344/FEMALE, Target Tissue: Type of Lesion: COLON: ADENOCARCINOMA, Dose [Carcinogen]: 2 MG 3/WK FOR 5 WK
  tumour outcome (control, treated, inhibition, significance): 20/30 (67%), 9/29 (31%), 54%, p<0.02
Carcinogen: N-METHYL-N-NITROSOUREA, 684-93-5, Dose [Inhibitor]: 2.5 MG/KG BW FOR 15 WK STARTING 5 WK POST CARCINOGEN TREATMENT FOLLOWED BY 10 WK CESSATION OF TREATMENT (STUDY DURATION:, Route [Inhibitor]: INTRAPERITONEAL, Species: RAT, Strain/Sex: CD/F344/FEMALE, Target Tissue: Type of Lesion: COLON: ADENOCARCINOMA, Dose [Carcinogen]: 2 MG 3/WK FOR 5 WK
  tumour outcome (control, treated, inhibition, significance): 6/9 (67%), 7/9 (78%), -16%, not significant
Carcinogen: N-METHYL-N-NITROSOUREA, 684-93-5, Dose [Inhibitor]: 10 UG/ML TAP WATER FOR 15 WK STARTING 10 WK AFTER THE START OF CARCINOGEN TREATMENT AND CONTINUING THROUGH END OF STUDY, Route [Inhibitor]: ORAL, Species: RAT, Strain/Sex: CD-FISCHER/FEMALE, Target Tissue: Type of Lesion: LARGE INTESTINE: ADENOCARCINOMA, Dose [Carcinogen]: 2 MG 3/WK FOR 5 WK
  tumour outcome (control, treated, inhibition, significance): 18/27 (67%), 4/28 (14%), 79%, p<0.01
Carcinogen: N-METHYL-N-NITROSOUREA, 684-93-5, Dose [Inhibitor]: 20 UG/ML TAP WATER FOR 15 WK STARTING 10 WK AFTER THE START OF CARCINOGEN TREATMENT AND CONTINUING THROUGH END OF STUDY, Route [Inhibitor]: ORAL, Species: RAT, Strain/Sex: CD-FISCHER/FEMALE, Target Tissue: Type of Lesion: LARGE INTESTINE: ADENOCARCINOMA, Dose [Carcinogen]: 2 MG 3/WK FOR 5 WK
  tumour outcome (control, treated, inhibition, significance): 18/27 (67%), 4/24 (17%), 75%, p<0.01
Carcinogen: N-NITROSOMETHYLUREA, 684-93-5, Dose [Inhibitor]: 0, 0.001% IN DRINKING WATER FOR STUDY DAYS 1 TO 8 (STUDY DURATION: 31 WK), Route [Inhibitor]: ORAL, Species: RAT, Strain/Sex: SPRAGUE-DAWLEY/MALE, Target Tissue: Type of Lesion: LARGE BOWEL: ADENOCARCINOMA, Dose [Carcinogen]: 4 MG ON D 3, 5 AND 7 OF STUDY
  tumour outcome (control, treated, inhibition, significance): 26/29 (90%), 20/30 (67%), 26%, not significant
Carcinogen: UVB IRRADIATION, Dose [Inhibitor]: 700 NMOL IN 0.1 ML ACETONE 5/WK FOR 4 WK IMMEDIATELY AFTER EACH EXPOSURE TO UVB FOLLOWED BY 48 WK OBSERVATION PERIOD (ST, Route [Inhibitor]: DERMAL, Species: MOUSE, Strain/Sex: SKH/HRL/FEMALE, Target Tissue: Type of Lesion: SKIN: TUMOR, Dose [Carcinogen]: 0.3 KJ/SQM ON FIRST DAY, 0.6 KJ/SQM ON SECOND DAY THEN 0.9 KJ/SQM UVB ADMINISTERED 5 D/WK FOR 4 WK
  tumour outcome (control, treated, inhibition, significance): 8/27 (30%), 6/26 (23%), 23%, not significant
Dose [Inhibitor]: 0, 0.005% IN DIET FOR DURATION OF STUDY BEGINNING SIMULTANEOUSLY WITH CARCINOGEN TREATMENT (STUDY DURATION: 40 WK), Route [Inhibitor]: ORAL, Species: RAT, Strain/Sex: WISTAR/MALE, Target Tissue: Type of Lesion: COLON: TUMOR, Dose [Carcinogen]: 1 ML OF 0.1% DISTILLED WATER SOLUTION 1/D FOR 14 D
  tumour outcome (control, treated, inhibition, significance): 27/33 (82%), 5/18 (28%), 66%, p<0.01
